Earlier results as cited in patent US20190259474A1, “GAN-CNN FOR MHC PEPTIDE BINDING PREDICTION” (REGENERON PHARMACEUTICALS, INC., priority 2018, published 2019).

How the values were obtained:
[1] = test system: MHC-I protein complex encoded by HLA allele B*44:03; settings: HLA B*44:03; category transformed from IC50; also: key: binding (1); not binding (−1)
[2] = test system: MHC-I protein complex encoded by HLA allele A829:02; settings: HLA A829:02; category transformed from IC50; also: key: binding (1); not binding (−1)
[3] = test system: MHC-I protein complex encoded by HLA allele C*16:01; settings: HLA C*16:01; category transformed from IC50; also: key: binding (1); not binding (−1)
[4] = molecular target: MHC-I protein complex encoded by HLA allele A*03:01 (Homo sapiens, UniProt P04439); settings: HLA A*03:01; category transformed from IC50; also: key: binding (1); not binding (−1)
[5] = test system: MHC-I protein complex encoded by HLA allele B*14:02; settings: HLA B*14:02; category transformed from IC50; also: key: binding (1); not binding (−1)
[6] = test system: MHC-I protein complex encoded by HLA allele C*03:04; settings: HLA C*03:04; category transformed from IC50; also: key: binding (1); not binding (−1)
[7] = molecular target: MHC-I protein complex encoded by HLA allele A*02:01 (Homo sapiens, UniProt P04439, D140Y/D185E/D98H/E176V/E277Q/G131W/G231S/I119V/I121R/I166T/I218V/L300P/L318F/N151K/N90K/P208A/P217A/Q86G/Q94H/R138H/R169H/T345S); settings: HLA A*02:01; category transformed from IC50; also: key: binding (1); not binding (−1)
[8] = test system: MHC-I protein complex encoded by HLA allele B*58:01; settings: HLA B*58:01; category transformed from IC50; also: key: binding (1); not binding (−1)
[9] = test system: MHC-I protein complex encoded by HLA allele B*48:01; settings: HLA B*48:01; category transformed from IC50; also: key: binding (1); not binding (−1)
[10] = molecular target: MHC-I protein complex encoded by HLA allele A*02:03 (Homo sapiens, UniProt P04439, A173T/D140Y/D185E/D98H/E277Q/G131W/G231S/I119V/I121R/I166T/I218V/L180W/L300P/L318F/N151K/N90K/P208A/P217A/Q86G/Q94H/R138H/R169H/T345S); settings: HLA A*02:03; category transformed from IC50; also: key: binding (1); not binding (−1)
[11] = test system: MHC-I protein complex encoded by HLA allele A*68:02; settings: HLA A*68:02; category transformed from IC50
[12] = test system: MHC-I protein complex encoded by HLA allele A*02:02; settings: HLA A*02:02; category transformed from IC50
[13] = molecular target: MHC-I protein complex encoded by HLA allele A*02:06 (Homo sapiens, UniProt P04439, D140Y/D185E/D98H/E176V/E277Q/F33Y/G131W/G231S/I119V/I121R/I166T/I218V/L300P/L318F/N151K/N90K/P208A/P217A/Q86G/Q94H/R138H/R169H/T345S); settings: HLA A*02:06; category transformed from IC50

In the case of AAADFAHAE (MHC-I binding peptide), the “Binding Category” value [1] is listed as −1.
For AAAAAAAALY (MHC-I binding peptide), the “Binding Category” value [2] is given as 1.
For AAAAALWL (MHC-I binding peptide), the “Binding Category” value [3] is given as 1.
For AAAAALQAK (MHC-I binding peptide), the “Binding Category” value [4] is given as 1.
For AAAAARAAL (MHC-I binding peptide), the “Binding Category” value [5] is listed as −1.
In the case of AAADAAAAL (MHC-I binding peptide), the “Binding Category” value [6] is listed as 1.
For AAAAEEEEE (MHC-I binding peptide), the “Binding Category” value [7] is listed as −1.
In the case of AAADPKVAF (MHC-I binding peptide), the “Binding Category” value [3] is listed as 1.
In the case of AAAAPYAGW (MHC-I binding peptide), the “Binding Category” value [8] is given as 1.
In the case of AAAAFEAAL, the “Binding Category” value [9] is given as 1.
For AAAATCALV (MHC-I binding peptide), the “Binding Category” value [10] is given as 1, the “Binding Category” value [11] is given as 1 and the “Binding Category” value [7] is given as 1. The “Binding Category” value [12] was 1 and the “Binding Category” value [13] was 1.
For AAAARAAAL (MHC-I binding peptide), the “Binding Category” value [5] is listed as 1.
